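Cultured in 96-well plates, cells were exposed to test compound for 48 hours across five concentrations. Definition used: TGI = concentration required for complete inhibition of growth.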
How the values were obtained:
Assay in all cases: NCI tumour cell line growth inhibition, 48 h
DMS 114 small cell lung = test system: DMS 114 small cell lung
KM20L2 colon = test system: KM20L2 colon
SNB-78 CNS = test system: SNB-78 CNS
HCT-15 colon = test system: HCT-15 colon
HL-60(TB) leukemia = test system: HL-60(TB) leukemia
DMS 273 small cell lung = test system: DMS 273 small cell lung
SK-MEL-5 melanoma = test system: SK-MEL-5 melanoma
K-562 leukemia = test system: K-562 leukemia
SF-295 CNS = test system: SF-295 CNS
ACHN renal = test system: ACHN renal
OVCAR-8 ovarian = test system: OVCAR-8 ovarian

CC1=NOC(=O)/C1=C/c1cccc2ccccc12
TGI (DMS 114 small cell lung): > 100 µM | TGI (KM20L2 colon): > 100 µM | TGI (SNB-78 CNS): > 100 µM | TGI (HCT-15 colon): > 100 µM | TGI (HL-60(TB) leukemia): > 100 µM | TGI (DMS 273 small cell lung): > 100 µM | TGI (SK-MEL-5 melanoma): > 100 µM | TGI (K-562 leukemia): > 100 µM | TGI (SF-295 CNS): > 100 µM | TGI (ACHN renal): > 100 µM | TGI (OVCAR-8 ovarian): > 100 µM

O=C1CCC2CC(C(=O)c3ccccc3)CCC2CN1 (stereo not given) (tested in a mixture with another compound)
TGI (DMS 114 small cell lung): > 100 µM | TGI (KM20L2 colon): > 100 µM | TGI (SNB-78 CNS): > 100 µM | TGI (HCT-15 colon): > 100 µM | TGI (HL-60(TB) leukemia): > 100 µM | TGI (DMS 273 small cell lung): > 100 µM | TGI (SK-MEL-5 melanoma): > 100 µM | TGI (K-562 leukemia): > 100 µM | TGI (SF-295 CNS): > 100 µM | TGI (ACHN renal): > 100 µM | TGI (OVCAR-8 ovarian): > 100 µM

Cc1cccc2c1N(C(=O)/C=C\C(=O)O)C(c1c(C)[nH]c3ccccc13)C2 (stereo not given)
TGI (DMS 114 small cell lung): 42.2 µM | TGI (KM20L2 colon): > 100 µM | TGI (SNB-78 CNS): > 100 µM | TGI (HL-60(TB) leukemia): 51.3 µM | TGI (SK-MEL-5 melanoma): 32.8 µM | TGI (K-562 leukemia): > 100 µM | TGI (SF-295 CNS): > 100 µM | TGI (ACHN renal): > 100 µM | TGI (OVCAR-8 ovarian): > 100 µM

Cc1cc2c(cc1C)[n+](=O)c(C(=O)C/C(=N/OCCCc1ccccc1)C(=O)Nc1cc(Cl)ccc1Cl)c(C)n2[O-]
TGI (KM20L2 colon): > 100 µM | TGI (SNB-78 CNS): > 100 µM | TGI (HCT-15 colon): > 100 µM | TGI (HL-60(TB) leukemia): > 100 µM | TGI (DMS 273 small cell lung): > 100 µM | TGI (SK-MEL-5 melanoma): > 100 µM | TGI (K-562 leukemia): > 100 µM | TGI (SF-295 CNS): > 100 µM | TGI (ACHN renal): > 100 µM | TGI (OVCAR-8 ovarian): > 100 µM

O=C(O)C[C@H]1CCCCC12CCOC2=O (stereo not given in full)
TGI (DMS 114 small cell lung): > 100 µM | TGI (KM20L2 colon): > 100 µM | TGI (SNB-78 CNS): > 100 µM | TGI (HL-60(TB) leukemia): > 100 µM | TGI (DMS 273 small cell lung): > 100 µM | TGI (SK-MEL-5 melanoma): > 100 µM | TGI (K-562 leukemia): > 100 µM | TGI (SF-295 CNS): > 100 µM | TGI (ACHN renal): > 100 µM | TGI (OVCAR-8 ovarian): > 100 µM

Cc1ccc(NC(=O)C(=O)C(C#N)c2nc(-c3ccc(-c4ccccc4)cc3)cs2)c(C)c1 (stereo not given)
TGI (DMS 114 small cell lung): > 100 µM | TGI (KM20L2 colon): > 100 µM | TGI (SNB-78 CNS): > 100 µM | TGI (HCT-15 colon): > 100 µM | TGI (DMS 273 small cell lung): > 100 µM | TGI (SK-MEL-5 melanoma): > 100 µM | TGI (SF-295 CNS): > 100 µM | TGI (ACHN renal): > 100 µM | TGI (OVCAR-8 ovarian): > 100 µM

O=C(c1ccccc1)[C@H]1Nc2ccc(Cl)cc2C2c3ccccc3CC21 (stereo not given in full)
TGI (DMS 114 small cell lung): > 100 µM | TGI (KM20L2 colon): > 100 µM | TGI (SNB-78 CNS): > 100 µM | TGI (HCT-15 colon): > 100 µM | TGI (DMS 273 small cell lung): > 100 µM | TGI (SK-MEL-5 melanoma): 85.2 µM | TGI (K-562 leukemia): > 100 µM | TGI (SF-295 CNS): 67.5 µM | TGI (ACHN renal): > 100 µM | TGI (OVCAR-8 ovarian): > 100 µM

O=C(c1ccccc1)N1C2CCC1C(C(F)(F)F)=C2C(F)(F)F
TGI (DMS 114 small cell lung): > 100 µM | TGI (KM20L2 colon): > 100 µM | TGI (SNB-78 CNS): > 100 µM | TGI (HCT-15 colon): > 100 µM | TGI (HL-60(TB) leukemia): > 100 µM | TGI (DMS 273 small cell lung): > 100 µM | TGI (SK-MEL-5 melanoma): > 100 µM | TGI (K-562 leukemia): > 100 µM | TGI (SF-295 CNS): > 100 µM | TGI (OVCAR-8 ovarian): > 100 µM

CNCc1cc(OC)ccc1-c1ccc(OC)c(OC)c1OC
TGI (DMS 114 small cell lung): > 100 µM | TGI (KM20L2 colon): > 100 µM | TGI (SNB-78 CNS): > 100 µM | TGI (HCT-15 colon): > 100 µM | TGI (HL-60(TB) leukemia): > 100 µM | TGI (DMS 273 small cell lung): > 100 µM | TGI (SK-MEL-5 melanoma): > 100 µM | TGI (K-562 leukemia): > 100 µM | TGI (SF-295 CNS): > 100 µM | TGI (ACHN renal): > 100 µM | TGI (OVCAR-8 ovarian): > 100 µM

COC(=O)C(CC(C)C)NC(=O)NC12CC3CC(CC(F)(C3)C1)C2 (stereo not given)
TGI (DMS 114 small cell lung): > 100 µM | TGI (KM20L2 colon): > 100 µM | TGI (SNB-78 CNS): > 100 µM | TGI (HL-60(TB) leukemia): > 100 µM | TGI (SK-MEL-5 melanoma): > 100 µM | TGI (K-562 leukemia): > 100 µM | TGI (ACHN renal): > 100 µM | TGI (OVCAR-8 ovarian): > 100 µM

COC(=O)C(Cc1cc(OC)c(OC)c(OC)c1)c1ccc(OC)cc1 (stereo not given)
TGI (DMS 114 small cell lung): > 100 µM | TGI (KM20L2 colon): > 100 µM | TGI (SNB-78 CNS): > 100 µM | TGI (HCT-15 colon): > 100 µM | TGI (HL-60(TB) leukemia): > 100 µM | TGI (DMS 273 small cell lung): > 100 µM | TGI (SK-MEL-5 melanoma): > 100 µM | TGI (K-562 leukemia): > 100 µM | TGI (SF-295 CNS): > 100 µM | TGI (ACHN renal): > 100 µM | TGI (OVCAR-8 ovarian): > 100 µM
